Source: US9169254B2, “Spiroimidazolone derivative” (Chugai Seiyaku Kabushiki Kaisha, priority 2009, dated 2015)

Molecular target: T1, human PTH1 receptor (Homo sapiens, UniProt Q03431)
T1 sequence (Q03431 27-593): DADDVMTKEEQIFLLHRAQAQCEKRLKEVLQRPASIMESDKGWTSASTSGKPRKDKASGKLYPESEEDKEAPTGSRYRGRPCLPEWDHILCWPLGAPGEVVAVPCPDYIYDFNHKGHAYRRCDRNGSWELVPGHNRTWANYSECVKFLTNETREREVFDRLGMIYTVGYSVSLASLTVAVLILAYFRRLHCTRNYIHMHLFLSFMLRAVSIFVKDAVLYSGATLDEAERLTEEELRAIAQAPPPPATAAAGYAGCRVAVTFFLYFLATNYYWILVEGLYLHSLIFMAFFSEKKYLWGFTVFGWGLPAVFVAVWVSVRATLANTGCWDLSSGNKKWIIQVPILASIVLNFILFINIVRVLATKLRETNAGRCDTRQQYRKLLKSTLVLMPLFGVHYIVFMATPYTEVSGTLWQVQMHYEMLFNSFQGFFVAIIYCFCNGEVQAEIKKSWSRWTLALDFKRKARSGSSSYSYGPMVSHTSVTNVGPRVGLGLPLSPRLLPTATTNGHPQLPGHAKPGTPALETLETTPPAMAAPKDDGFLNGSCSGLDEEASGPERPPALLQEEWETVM
Experiment: In vitro cAMP signal activity in HKRK-B7 cells (LLC-PK1 cells overexpressing the human PTH1 receptor)
Type: cell-based
Settings: HKRK-B7 cells; compound at 1×10^−3 M; […]; 0.1 µM

SMILES	cAMP production activity (%)
COCCOC(=O)N1CCCC(C2=NC3(CCN(S(=O)(=O)c4cccc(Cl)c4)CC3)C(=O)N2)C1 (centres unmarked) [Compound 460, 3-[8-(3-Chloro-benzenesulfonyl)-4-oxo-1,3,8-triaza-spiro[4.5]dec-1-en-2-yl]-piperidine-1-carboxylic acid 2-methoxy-ethyl ester]	18%
Cc1cc(C(=O)N2CCC(=O)CC2)cc(C)c1/C=C/S(=O)(=O)N1CCC2(CC1)N=C(c1ccc(F)c(C(F)(F)F)c1)NC2=O [Compound 972, 8-{(E)-2-[2,6-dimethyl-4-(4-oxo-piperidine-1-carbonyl)-phenyl]-ethenesulfonyl}-2-(4-fluoro-3-trifluoromethyl-phenyl)-1,3,8-triaza-spiro[4.5]dec-1-en-4-one]	89%

Same assay, conditions: HKRK-B7 cells; compound at 1×10^−3 M; cAMP produced as percentage of that produced by hPTH(1-34) at 100 nM

SMILES	cAMP production activity (%)
COCC(=O)N(C)c1ccc(/C=C/S(=O)(=O)N2CCC3(CC2)N=C(c2cccc(OC(F)(F)F)c2)NC3=O)c(C)c1 [Compound 450, 2-Methoxy-N-methyl-N-(3-methyl-4-{(E)-2-[4-oxo-2-(3-trifluoromethoxy-phenyl)-1,3,8-triaza-spiro[4.5]dec-1-ene-8-sulfonyl]-vinyl}-phenyl)-acetamide]	56%
CCCCC1CCC(C2=NC3(CCN(S(=O)(=O)/C=C/c4c(C)cc(C(=O)N5CCC(OCCOCCO)CC5)cc4C)CC3)C(=O)N2)CC1 (centres unmarked) [Compound 1009, 2-(4-butyl-cyclohexyl)-8-[(E)-2-(4-{4-[2-(2-hydroxy-ethoxy)-ethoxy]-piperidine-1-carbonyl}-2,6-dimethyl-phenyl)-ethenesulfonyl]-1,3,8-triaza-spiro[4.5]dec-1-en-4-one]	70%
Cc1cc(N(CC(F)(F)F)C(N)=O)ccc1/C=C/S(=O)(=O)N1CCC2(CC1)N=C(c1cccc(OC(F)(F)F)c1)NC2=O [Compound 731, 1-(3-Methyl-4-{(E)-2-[4-oxo-2-(3-trifluoromethoxy-phenyl)-1,3,8-triaza-spiro[4.5]dec-1-ene-8-sulfonyl]-vinyl}-phenyl)-1-(2,2,2-trifluoro-ethyl)-urea]	54%
Cc1cc(C(=O)N2CCC(C)(O)CC2)cc(C)c1/C=C/S(=O)(=O)N1CCC2(CC1)N=C(c1ccc(OC(C)(C)C(F)(F)F)c(C(F)(F)F)c1)NC2=O [Compound 1197, 8-{(E)-2-[4-(4-hydroxy-4-methyl-piperidine-1-carbonyl)-2,6-dimethyl-phenyl]-ethenesulfonyl}-2-[4-(2,2,2-trifluoro-1,1-dimethyl-ethoxy)-3-trifluoromethyl-phenyl]-1,3,8-triaza-spiro[4.5]dec-1-en-4-one]	74%
Cc1cc(C(=O)N2CCC3(CC2)COC3)cc(C)c1CCS(=O)(=O)N1CCC2(CC1)N=C(c1ccc(F)c(C(F)(F)F)c1)NC2=O [Compound 804, 8-{2-[2,6-dimethyl-4-(2-oxa-7-aza-spiro[3.5]nonane-7-carbonyl)-phenyl]-ethanesulfonyl}-2-(4-fluoro-3-trifluoromethyl-phenyl)-1,3,8-triaza-spiro[4.5]dec-1-en-4-one]	78%
Cc1cc(C(=O)N2CCC(O)CC2)cc(C)c1/C=C/S(=O)(=O)N1CCC2(CC1)N=C(c1cccc(CC#N)c1)NC2=O [Compound 1282, [3-(8-{(E)-2-[4-(4-Hydroxy-piperidine-1-carbonyl)-2,6-dimethyl-phenyl]-ethenesulfonyl}-4-oxo-1,3,8-triaza-spiro[4.5]dec-1-en-2-yl)-phenyl]-acetonitrile]	63%
Cc1noc(C)c1S(=O)(=O)N1CCC2(CC1)N=C(C1CCCCC1)NC2=O [Compound 59, 2-cyclohexyl-8-(3,5-dimethyl-isoxazole-4-sulfonyl)-1,3,8-triaza-spiro[4.5]dec-1-en-4-one]	56%
Cc1cc(NS(=O)(=O)NCCCO)ccc1/C=C/S(=O)(=O)N1CCC2(CC1)N=C(c1cccc(OC(F)(F)F)c1)NC2=O [Compound 743, N-(3-Hydroxy-propyl)-N′-(3-methyl-4-{(E)-2-[4-oxo-2-(3-trifluoromethoxy-phenyl)-1,3,8-triaza-spiro[4.5]dec-1-ene-8-sulfonyl]-vinyl}-phenyl)-sulfamide]	54%
Cc1cc(C(=O)N(C)C)ccc1CCS(=O)(=O)N1CCC2(CC1)N=C(C(C)(C)Oc1ccc(Cl)cc1Cl)NC2=O [Compound 175, 4-(2-{2-[1-(2,4-Dichloro-phenoxy)-1-methyl-ethyl]-4-oxo-1,3,8-triaza-spiro[4.5]dec-1-ene-8-sulfonyl}-ethyl)-3,N,N-trimethyl-benzamide]	73%
Cc1cc(C(=O)N2CCC(O)(CO)CC2)cc(C)c1/C=C/S(=O)(=O)N1CCC2(CC1)N=C(c1cccc(OC(F)(F)F)c1)NC2=O [Compound 403, 8-{(E)-2-[4-(4-hydroxy-4-hydroxymethyl-piperidine-1-carbonyl)-2,6-dimethyl-phenyl]-ethenesulfonyl}-2-(3-trifluoromethoxy-phenyl)-1,3,8-triaza-spiro[4.5]dec-1-en-4-one]	51%
CC(=O)NCc1cc(C)c(/C=C/S(=O)(=O)N2CCC3(CC2)N=C(C2CCC(C)CC2)NC3=O)c(C)c1 (centres unmarked) [Compound 522, N-(3,5-dimethyl-4-{(E)-2-[2-(4-methyl-cyclohexyl)-4-oxo-1,3,8-triaza-spiro[4.5]dec-1-ene-8-sulfonyl]-vinyl}-benzyl)-acetamide]	82%
CC(=O)Nc1ccc(CCS(=O)(=O)N2CCC3(CC2)N=C(C2CCC(OCCC(F)(F)F)CC2)NC3=O)c(C)c1 (centres unmarked) [Compound 921, N-[3-methyl-4-(2-{4-oxo-2-[4-(3,3,3-trifluoro-propoxy)-cyclohexyl]-1,3,8-triaza-spiro[4.5]dec-1-ene-8-sulfonyl}-ethyl)-phenyl]-acetamide]	59%
Cc1cc(C(=O)N(C)C)cc(C)c1/C=C/S(=O)(=O)N1CCC2(CC1)N=C(c1cccc(OC(F)(F)F)c1)NC2=O [Compound 961, 3,5,N,N-tetramethyl-4-{(E)-2-[4-oxo-2-(3-trifluoromethoxy-phenyl)-1,3,8-triaza-spiro[4.5]dec-1-ene-8-sulfonyl]-vinyl}-benzamide]	92%
O=C1NC(c2cccc(OC(F)(F)F)c2)=NC12CCN(S(=O)(=O)/C=C/c1cccc3c1ccn3C[C@H](O)CO)CC2 [Compound 526, 8-{(E)-2-[1-((S)-2,3-dihydroxy-propyl)-1H-indol-4-yl]-ethenesulfonyl}-2-(3-trifluoromethoxy-phenyl)-1,3,8-triaza-spiro[4.5]dec-1-en-4-one]	83%
Cc1cc(C(=O)N2CC[C@@H](N(C)C)C2)cc(C)c1/C=C/S(=O)(=O)N1CCC2(CC1)N=C(c1cccc(OC(F)(F)F)c1)NC2=O [Compound 399, 8-{(E)-2-[4-((R)-3-dimethylamino-pyrrolidine-1-carbonyl)-2,6-dimethyl-phenyl]-ethenesulfonyl}-2-(3-trifluoromethoxy-phenyl)-1,3,8-triaza-spiro[4.5]dec-1-en-4-one]	64%
Cc1cc(C(=O)N(C)C)ccc1CCS(=O)(=O)N1CCC2(CC1)N=C(c1cccc(-c3cccnc3)c1)NC2=O [Compound 173, 3,N,N-trimethyl-4-{2-[4-oxo-2-(3-pyridin-3-yl-phenyl)-1,3,8-triaza-spiro[4.5]dec-1-ene-8-sulfonyl]-ethyl}-benzamide]	71%
Cc1cc(N(C)C(N)=O)cc(C)c1CCS(=O)(=O)N1CCC2(CC1)N=C(C1C[C@@H](C)[C@@H](C)C1)NC2=O (stereo partly drawn) [Compound 1051, 1-(4-{2-[2-(cis-3,4-dimethyl-cyclopentyl)-4-oxo-1,3,8-triaza-spiro[4.5]dec-1-ene-8-sulfonyl]-ethyl}-3,5-dimethyl-phenyl)-1-methyl-urea]	85%
Cc1cc(N(CCO)C(N)=O)cc(C)c1/C=C/S(=O)(=O)N1CCC2(CC1)N=C(c1cccc(OC(F)(F)F)c1)NC2=O [Compound 605, 1-(3,5-dimethyl-4-{(E)-2-[4-oxo-2-(3-trifluoromethoxy-phenyl)-1,3,8-triaza-spiro[4.5]dec-1-ene-8-sulfonyl]-vinyl}-phenyl)-1-(2-hydroxy-ethyl)-urea]	54%
CCCCCCCCCC1=NC2(CCN(S(=O)(=O)CCc3ccc(N(CCOCCO)C(C)=O)cc3C)CC2)C(=O)N1 [Compound 825, N-[2-(2-hydroxy-ethoxy)-ethyl]-N-{3-methyl-4-[2-(2-nonyl-4-oxo-1,3,8-triaza-spiro[4.5]dec-1-ene-8-sulfonyl)-ethyl]-phenyl}-acetamide]	114%
Cc1cc(N(C[C@H](O)CO)C(N)=O)cc(C)c1CCS(=O)(=O)N1CCC2(CC1)N=C(C1CCC(C)CC1)NC2=O (stereo partly drawn) [Compound 830, 1-((S)-2,3-dihydroxy-propyl)-1-(3,5-dimethyl-4-{2-[2-(4-methyl-cyclohexyl)-4-oxo-1,3,8-triaza-spiro[4.5]dec-1-ene-8-sulfonyl]-ethyl}-phenyl)-urea]	73%
CC(=O)N(C)Cc1cc(C)c(/C=C/S(=O)(=O)N2CCC3(CC2)N=C(C2CCC(C)CC2)NC3=O)c(C)c1 (centres unmarked) [Compound 517, N-(3,5-dimethyl-4-{(E)-2-[2-(4-methyl-cyclohexyl)-4-oxo-1,3,8-triaza-spiro[4.5]dec-1-ene-8-sulfonyl]-vinyl}-benzyl)-N-methyl-acetamide]	58%
